Data reported in BigSolDB 2.1.

CS(=O)(=O)c1ccc(C(=O)C2C(=O)CCCC2=O)c([N+](=O)[O-])c1
solubility (mole fraction)
Details	283.15 K	288.15 K	293.15 K	298.15 K	303.15 K	308.15 K	313.15 K	318.15 K	323.15 K
in 2-pentanol	0.000571	0.00081	0.00114	0.00158	0.00216	0.00294	0.00396	0.00561	0.00671
in MTBE	0.000245	0.000282	0.000322	0.000367	0.000397	0.000473	0.000536	0.000606	0.000684
in cyclohexane	0.000321	0.000402	0.000486	0.000616	0.000733	0.000888	0.00104	0.00122	0.00168
in ethanol	0.0023	0.00264	0.00316	0.00386	0.00455	0.00535	0.00627	0.00734	0.00857
in ethyl acetate	0.000565	0.000707	0.000879	0.00109	0.00132	0.00163	0.00198	0.00239	0.00287
in methanol	0.00351	0.00401	0.00457	0.00518	0.00567	0.00663	0.00748	0.00842	0.00946
in methyl acetate	0.00134	0.00152	0.00173	0.00194	0.00225	0.00255	0.00293	0.0033	0.00381
in n-butanol	0.000708	0.000999	0.00139	0.00193	0.00273	0.00355	0.00476	0.00601	0.00731
in n-butyl acetate	0.000418	0.000529	0.000664	0.000829	0.00103	0.00127	0.00155	0.0019	0.00231
in n-pentanol	0.000635	0.000889	0.00123	0.00168	0.00228	0.00306	0.00407	0.00536	0.007
in n-propanol	0.0013	0.00168	0.00216	0.00274	0.00376	0.00434	0.0054	0.00669	0.00793
in sec-butanol	0.000341	0.000507	0.000745	0.00108	0.00145	0.00199	0.00307	0.00425	0.00584
